Measured values from PubChem BioAssay AID1259407 (Chemical Carcinogenesis Research Information System (CCRIS), 2018).
The source made the active and inactive calls. How the calls were made is not given here.

System: CCRIS mutagenicity, Ames/micronucleus/aberration tests
Experiment: CCRIS mutagenicity studies
[1] = Test System: AMES SALMONELLA TYPHIMURIUM, Strain/Indicator: TA98, Metabolic Activation: NONE, Method: PREINCUBATION
[2] = Test System: AMES SALMONELLA TYPHIMURIUM, Strain/Indicator: TA100, Metabolic Activation: NONE, Method: PREINCUBATION
[3] = Test System: AMES SALMONELLA TYPHIMURIUM, Strain/Indicator: TA98, Metabolic Activation: NONE, Method: STANDARD PLATE
[4] = Test System: AMES SALMONELLA TYPHIMURIUM, Strain/Indicator: TA100, Metabolic Activation: NONE, Method: STANDARD PLATE
[5] = Test System: AMES SALMONELLA TYPHIMURIUM, Strain/Indicator: TA1535, Metabolic Activation: NONE, Method: STANDARD PLATE
[6] = Test System: AMES SALMONELLA TYPHIMURIUM, Strain/Indicator: TA1537, Metabolic Activation: NONE, Method: STANDARD PLATE
[7] = Test System: AMES SALMONELLA TYPHIMURIUM, Strain/Indicator: TA1538, Metabolic Activation: NONE, Method: STANDARD PLATE

With `Oc1ccc(-c2ccc(O)cc2)cc1` the mutagenic call (Test System: AMES SALMONELLA TYPHIMURIUM, Strain/Indicator: TA97, Metabolic Activation: NONE, Method: PREINCUBATION) was “inactive; negative”, the mutagenic call (Test System: AMES SALMONELLA TYPHIMURIUM, Strain/Indicator: TA97, Metabolic Activation: RAT, LIVER, S-9, AROCLOR 1254, Method: PREINCUBATION) was “inactive; negative” and the mutagenic call [1] was “inactive; negative”. For the same compound, the mutagenic call (Test System: AMES SALMONELLA TYPHIMURIUM, Strain/Indicator: TA98, Metabolic Activation: RAT, LIVER, S-9, AROCLOR 1254, Method: PREINCUBATION) was “inactive; negative”, the mutagenic call [2] was “inactive; negative” and the mutagenic call (Test System: AMES SALMONELLA TYPHIMURIUM, Strain/Indicator: TA100, Metabolic Activation: RAT, LIVER, S-9, AROCLOR 1254, Method: PREINCUBATION) was “inactive; negative”. For the same compound, the mutagenic call (Test System: AMES SALMONELLA TYPHIMURIUM, Strain/Indicator: TA102, Metabolic Activation: NONE, Method: PREINCUBATION) was “inactive; negative”, the mutagenic call (Test System: AMES SALMONELLA TYPHIMURIUM, Strain/Indicator: TA102, Metabolic Activation: RAT, LIVER, S-9, AROCLOR 1254, Method: PREINCUBATION) was “inactive; negative” and the mutagenic call (Test System: AMES SALMONELLA TYPHIMURIUM, Strain/Indicator: TA104, Metabolic Activation: NONE, Method: PREINCUBATION) was “inactive; negative”. For the same compound, the mutagenic call (Test System: AMES SALMONELLA TYPHIMURIUM, Strain/Indicator: TA104, Metabolic Activation: RAT, LIVER, S-9, AROCLOR 1254, Method: PREINCUBATION) was “inactive; negative”, the mutagenic call (Test System: AMES SALMONELLA TYPHIMURIUM, Strain/Indicator: TA1535, Metabolic Activation: NONE, Method: PREINCUBATION) was “inactive; negative” and the mutagenic call (Test System: AMES SALMONELLA TYPHIMURIUM, Strain/Indicator: TA1535, Metabolic Activation: RAT, LIVER, S-9, AROCLOR 1254, Method: PREINCUBATION) was “inactive; negative”. The mutagenic call (Test System: CHINESE HAMSTER V-79, Strain/Indicator: V-79/6-THIOGUANINE, Metabolic Activation: NONE) was “inactive; negative”.

In the case of `C1COCO1`, the mutagenic call [3] is reported as “inactive; negative”, the mutagenic call (Test System: AMES SALMONELLA TYPHIMURIUM, Strain/Indicator: TA98, Metabolic Activation: RAT, LIVER, S-9, AROCLOR 1254, Method: STANDARD PLATE) is reported as “inactive; negative” and the mutagenic call [4] is reported as “inactive; negative”. For the same compound, the mutagenic call (Test System: AMES SALMONELLA TYPHIMURIUM, Strain/Indicator: TA100, Metabolic Activation: RAT, LIVER, S-9, AROCLOR 1254, Method: STANDARD PLATE) was “inactive; negative”, the mutagenic call [5] was “inactive; negative” and the mutagenic call (Test System: AMES SALMONELLA TYPHIMURIUM, Strain/Indicator: TA1535, Metabolic Activation: RAT, LIVER, S-9, AROCLOR 1254, Method: STANDARD PLATE) was “inactive; negative”. For the same compound, the mutagenic call [6] was “inactive; negative”, the mutagenic call (Test System: AMES SALMONELLA TYPHIMURIUM, Strain/Indicator: TA1537, Metabolic Activation: RAT, LIVER, S-9, AROCLOR 1254, Method: STANDARD PLATE) was “inactive; negative” and the mutagenic call [7] was “inactive; negative”. The mutagenic call (Test System: AMES SALMONELLA TYPHIMURIUM, Strain/Indicator: TA1538, Metabolic Activation: RAT, LIVER, S-9, AROCLOR 1254, Method: STANDARD PLATE) was “inactive; negative”.

`BrCCCCCBr` was tested, and the mutagenic call [1] was “inactive; negative”, the mutagenic call (Test System: AMES SALMONELLA TYPHIMURIUM, Strain/Indicator: TA98, Metabolic Activation: RAT LIVER S-9, PHENOBARBITAL AND BETA-NAPHTHOFLAVONE, Method: PREINCUBATION) was “inactive; negative” and the mutagenic call [2] was “inactive; negative”. For the same compound, the mutagenic call (Test System: AMES SALMONELLA TYPHIMURIUM, Strain/Indicator: TA100, Metabolic Activation: RAT LIVER S-9, PHENOBARBITAL AND BETA-NAPHTHOFLAVONE, Method: PREINCUBATION) was “inactive; negative”, the mutagenic call (Test System: AMES SALMONELLA TYPHIMURIUM, Strain/Indicator: TA1537, Metabolic Activation: NONE, Method: PREINCUBATION) was “inactive; negative” and the mutagenic call (Test System: AMES SALMONELLA TYPHIMURIUM, Strain/Indicator: TA1537, Metabolic Activation: RAT LIVER S-9, PHENOBARBITAL AND BETA-NAPHTHOFLAVONE, Method: PREINCUBATION) was “inactive; negative”.

For `CC(=O)[C@]1(O)Cc2c(O)c3c(c(O)c2[C@@H](O[C@H]2C[C@H](N)[C@H](O)[C@H](C)O2)C1)C(=O)c1ccccc1C3=O`, the mutagenic call (Test System: AMES SALMONELLA TYPHIMURIUM, Strain/Indicator: GW257, Metabolic Activation: NONE, Method: STANDARD PLATE) was “active; positive”, the mutagenic call [3] was “active; positive” and the mutagenic call [4] was “active; positive”. For the same compound, the mutagenic call [7] was “active; positive”, the mutagenic call (Test System: CHINESE HAMSTER V-79, Strain/Indicator: V-79/6-THIOGUANINE, Metabolic Activation: NONE, Method: SUSPENSION/PLATE) was “active; positive” and the mutagenic call (Test System: UDS RAT HEPATOCYTES, Strain/Indicator: THY INCORP, Metabolic Activation: NONE, Method: AUTOMATIC COLONY COUNTER) was “active; positive”.

In the case of `O=[N+]([O-])/C=C/c1ccco1`, the mutagenic call (End Point: IN VITRO MICRONUCLEUS, Test System: HUMAN LYMPHOCYTES, Metabolic Activation: NONE) is reported as “inactive; negative”, the mutagenic call (End Point: IN VITRO MICRONUCLEUS, Test System: HUMAN LYMPHOCYTES, Metabolic Activation: S-9) is reported as “inactive; negative” and the mutagenic call (End Point: IN VIVO MICRONUCLEUS, Test System: BONE MARROW, Species: MOUSE, Strain/Sex: CD-1/MALE, Route: INTRAPERITONEAL) is reported as “inactive; negative”. For the same compound, the mutagenic call [1] was “inactive; negative”.

`Cc1ccc(N=[N+]([O-])c2ccc(C)c(N)c2)cc1N` was tested, and the mutagenic call [1] was “inactive; negative”, the mutagenic call (Test System: AMES SALMONELLA TYPHIMURIUM, Strain/Indicator: TA98, Metabolic Activation: NONE, Method: SUSPENSION/PLATE) was “inactive; negative” and the mutagenic call (Test System: AMES SALMONELLA TYPHIMURIUM, Strain/Indicator: TA98, Metabolic Activation: RAT, LIVER, S-9, PCB, Method: PREINCUBATION) was “active; positive”. The mutagenic call (Test System: AMES SALMONELLA TYPHIMURIUM, Strain/Indicator: TA98, Metabolic Activation: RAT, LIVER, S-9, PHENOBARBITAL AND 5,6-BENZOFLAVONE, Method: SUSPENSION/PLATE) was “active; positive”, the mutagenic call (Test System: AMES SALMONELLA TYPHIMURIUM, Strain/Indicator: TA100, Metabolic Activation: NONE, Method: SUSPENSION/PLATE) was “inactive; negative” and the mutagenic call (Test System: AMES SALMONELLA TYPHIMURIUM, Strain/Indicator: TA100, Metabolic Activation: RAT, LIVER, S-9, PHENOBARBITAL AND 5,6-BENZOFLAVONE, Method: SUSPENSION/PLATE) was “inactive; negative”.

With `OC(Nc1snc2ccccc12)C(Cl)(Cl)Cl` (stereo not drawn) the mutagenic call [3] was “inactive; negative”, the mutagenic call (Test System: AMES SALMONELLA TYPHIMURIUM, Strain/Indicator: TA98, Metabolic Activation: S-9, Method: STANDARD PLATE) was “inactive; negative” and the mutagenic call [4] was “inactive; negative”. The mutagenic call (Test System: AMES SALMONELLA TYPHIMURIUM, Strain/Indicator: TA100, Metabolic Activation: S-9, Method: STANDARD PLATE) was “inactive; negative”, the mutagenic call [5] was “inactive; negative” and the mutagenic call (Test System: AMES SALMONELLA TYPHIMURIUM, Strain/Indicator: TA1535, Metabolic Activation: S-9, Method: STANDARD PLATE) was “inactive; negative”. The mutagenic call [6] was “inactive; negative” and the mutagenic call (Test System: AMES SALMONELLA TYPHIMURIUM, Strain/Indicator: TA1537, Metabolic Activation: S-9, Method: STANDARD PLATE) was “inactive; negative”.
